Where two headings read alike, the source gives them in different places. Numbered stars: 1 amine (or outer) side, 2 acyl side, 3 side chain; on linkers, the order of the positions; unused ones are H or OH. Square brackets hold non-standard residues; d marks the D form. Ends that are not written are not given here. Peptide text beside a SMILES is read from it. X1 = O=C([C@H](CC(F)(F)P(=O)(O)O)N[*:1])[*:2]; pS = N[C@@H](COP(=O)(O)O)C(=O)O
What was measured:
[1] = tested on: CzCdc14; conditions: DiFMUP; 0.5 nM enzyme, pH 7.5, 30 °C; mean of 3 ± SD
Method: All enzyme concentrations were 0.5 nM, except for PsCdc14 and VHR, which were assayed at 2 and 5 nM, respectively. Fluorescence intensity was measured continuously on a Synergy H1 microplate reader (BioTek) with excitation and emission wavelengths set at 358 and 450 nm, respectively. Fluorescence intensity was converted to product concentration using a 6,8-difluoro-4-methylumbelliferone standard curve. Background fluorescence was subtracted from each reaction and initial rates were calculated from the slope of the linear portion of the product concentration versus time plots. kcat and KM were calculated as described above.

[2] = molecular target: T1, MoCdc14 (Pyricularia oryzae, UniProt G4MRC9); conditions: DiFMUP; 0.5 nM enzyme, pH 7.5, 30 °C; mean of 3 ± SD
T1 sequence (G4MRC9 1-474 limits assumed): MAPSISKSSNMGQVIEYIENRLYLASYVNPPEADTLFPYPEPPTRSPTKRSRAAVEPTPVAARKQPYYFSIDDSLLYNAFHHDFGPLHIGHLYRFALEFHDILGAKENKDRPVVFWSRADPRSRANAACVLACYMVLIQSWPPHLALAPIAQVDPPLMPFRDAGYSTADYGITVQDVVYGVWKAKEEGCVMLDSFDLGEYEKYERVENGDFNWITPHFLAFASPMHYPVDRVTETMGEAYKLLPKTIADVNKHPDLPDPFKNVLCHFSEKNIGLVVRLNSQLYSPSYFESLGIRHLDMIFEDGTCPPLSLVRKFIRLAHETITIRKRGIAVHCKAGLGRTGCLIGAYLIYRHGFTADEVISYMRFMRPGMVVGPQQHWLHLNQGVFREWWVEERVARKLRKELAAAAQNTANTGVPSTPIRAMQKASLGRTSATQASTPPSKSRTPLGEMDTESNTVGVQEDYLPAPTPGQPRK

[3] = molecular target: T2, ScCdc14 (Saccharomyces cerevisiae, UniProt Q00684); experiment: Enzyme inhibition, DiFMUP assay; format: biochemical
T2 construct: made in house; host or cells: E. coli BL21 AI
T2 sequence (Q00684 1-447 limits assumed): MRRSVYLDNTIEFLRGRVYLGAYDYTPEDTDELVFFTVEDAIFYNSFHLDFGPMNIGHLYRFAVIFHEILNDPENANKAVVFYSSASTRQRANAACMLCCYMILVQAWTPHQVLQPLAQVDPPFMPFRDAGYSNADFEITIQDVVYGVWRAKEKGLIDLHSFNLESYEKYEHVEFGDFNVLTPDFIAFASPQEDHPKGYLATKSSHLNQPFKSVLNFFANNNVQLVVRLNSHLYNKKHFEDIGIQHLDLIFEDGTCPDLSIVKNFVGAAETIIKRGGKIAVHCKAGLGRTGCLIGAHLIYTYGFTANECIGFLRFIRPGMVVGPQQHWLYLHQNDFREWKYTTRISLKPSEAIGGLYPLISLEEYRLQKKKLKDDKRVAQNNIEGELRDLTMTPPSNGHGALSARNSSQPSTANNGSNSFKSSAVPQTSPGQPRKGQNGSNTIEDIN
Source text: Measured initial rates were converted to percent activity relative to a reaction lacking pCF2Ser peptide. […] Ki is related to IC50 by the equation Ki = IC50/([S]/KM + 1). Since [S] was equal to KM in our assays, Ki = IC50/2.

[4] = molecular target: T1, MoCdc14; experiment: biochemical; set-up: species or system Magnaporthe oryzae
[5] = molecular target: T3, AnCdc14 (Aspergillus niger, UniProt A2QDS6); experiment: Phosphopeptide steady-state kinetics (Biomol Green); format: biochemical; conditions: phosphopeptide pS, pH 7.5, 30 °C, mean of 3 ± SD
T3 sequence (A2QDS6 1-476 limits assumed): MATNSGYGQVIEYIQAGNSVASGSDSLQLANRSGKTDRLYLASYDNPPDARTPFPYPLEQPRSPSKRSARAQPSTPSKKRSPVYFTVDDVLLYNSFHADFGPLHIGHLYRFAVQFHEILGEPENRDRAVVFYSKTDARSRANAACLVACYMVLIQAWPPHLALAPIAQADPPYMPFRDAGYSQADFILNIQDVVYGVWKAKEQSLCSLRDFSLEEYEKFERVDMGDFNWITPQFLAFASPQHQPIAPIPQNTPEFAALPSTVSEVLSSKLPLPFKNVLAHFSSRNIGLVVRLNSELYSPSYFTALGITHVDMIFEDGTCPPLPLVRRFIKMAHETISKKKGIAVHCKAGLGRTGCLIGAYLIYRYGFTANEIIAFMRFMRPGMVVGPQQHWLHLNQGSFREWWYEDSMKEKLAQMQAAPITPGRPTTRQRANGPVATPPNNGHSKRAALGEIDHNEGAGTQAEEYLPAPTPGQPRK

[6] = tested on: CzCdc14; experiment: as above; format: biochemical, Cercospora zeina; conditions: phosphopeptide pS, pH 7.5, 30 °C, mean of 3 ± SD
Method: (§1) Activities towards varying concentrations of the synthetic phosphopeptide HT(pSer)PIKSIG (Genscript Corp) were measured in 50 µL assay buffer at 30 °C essentially as described above for pNPP, except substrate consumption was limited to 10% due to limited assay sensitivity and the reaction was stopped with 100 µL Biomol Green (Enzo Life Sciences).

[7] = molecular target: T1, MoCdc14; format: biochemical, Magnaporthe oryzae; conditions: phosphopeptide pS; pH 7.5, 30 °C; Biomol Green; mean of 3 ± SD
[8] = molecular target: T4, BcCdc14 (Botrytis cinerea, UniProt A0A384J4N9); experiment: Phosphopeptide steady-state kinetics (Biomol Green); format: biochemical; conditions: phosphopeptide pS, pH 7.5, 30 °C, mean of 3 ± SD
T4 sequence (A0A384J4N9 1-492): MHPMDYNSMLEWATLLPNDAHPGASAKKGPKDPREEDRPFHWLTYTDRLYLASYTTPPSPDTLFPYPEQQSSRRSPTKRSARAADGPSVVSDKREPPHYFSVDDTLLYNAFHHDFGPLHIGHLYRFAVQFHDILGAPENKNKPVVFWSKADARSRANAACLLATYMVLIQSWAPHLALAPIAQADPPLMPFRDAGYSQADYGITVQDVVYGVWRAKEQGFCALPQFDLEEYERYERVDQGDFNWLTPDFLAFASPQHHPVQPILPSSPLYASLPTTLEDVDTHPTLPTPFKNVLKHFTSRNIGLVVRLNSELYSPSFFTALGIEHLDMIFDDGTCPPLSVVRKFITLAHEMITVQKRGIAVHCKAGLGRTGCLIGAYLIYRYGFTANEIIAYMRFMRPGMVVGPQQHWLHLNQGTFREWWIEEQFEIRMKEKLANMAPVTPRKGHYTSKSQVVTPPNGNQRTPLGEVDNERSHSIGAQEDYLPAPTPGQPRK
Method: as §1

[9] = molecular target: T5, CgCdc14 (Colletotrichum gloeosporioides, UniProt A0A8H4CJA2); experiment: as above; format: biochemical; conditions: phosphopeptide pS, pH 7.5, 30 °C, mean of 3 ± SD
T5 sequence (A0A8H4CJA2 entry or part of it): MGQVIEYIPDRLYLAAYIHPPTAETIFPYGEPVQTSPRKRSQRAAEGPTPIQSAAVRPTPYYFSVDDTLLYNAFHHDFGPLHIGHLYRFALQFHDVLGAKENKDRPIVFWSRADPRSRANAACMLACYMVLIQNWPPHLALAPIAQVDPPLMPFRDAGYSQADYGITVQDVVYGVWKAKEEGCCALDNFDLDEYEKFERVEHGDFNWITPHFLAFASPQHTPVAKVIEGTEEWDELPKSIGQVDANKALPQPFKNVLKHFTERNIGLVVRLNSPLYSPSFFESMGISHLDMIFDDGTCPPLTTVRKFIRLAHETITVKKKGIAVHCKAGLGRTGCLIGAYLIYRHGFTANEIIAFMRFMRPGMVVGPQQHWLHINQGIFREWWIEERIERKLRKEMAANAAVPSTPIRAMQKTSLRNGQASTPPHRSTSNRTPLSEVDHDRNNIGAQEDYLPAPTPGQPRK
Method: as §1

[10] = molecular target: T6, RsCdc14 (Rhizoctonia solani, UniProt L8WYM4); experiment: as above; format: biochemical; conditions: phosphopeptide pS, pH 7.5, 30 °C, mean of 3 ± SD
T6 sequence (L8WYM4 2-162 limits assumed): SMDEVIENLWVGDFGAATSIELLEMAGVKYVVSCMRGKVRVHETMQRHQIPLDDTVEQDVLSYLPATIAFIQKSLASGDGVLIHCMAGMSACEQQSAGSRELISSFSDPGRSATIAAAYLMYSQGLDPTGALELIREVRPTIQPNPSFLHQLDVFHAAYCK
Method: as §1

[11] = molecular target: T2, ScCdc14; experiment: as above; format: biochemical; conditions: phosphopeptide pS, pH 7.5, 30 °C, mean of 3 ± SD
Method: as §1

[12] = molecular target: T4, BcCdc14; experiment: MS specificity constant assay; format: biochemical; conditions: pooled phosphopeptides 375 nM each, 1 to 1,000 nM Cdc14, pH 7.5, 30 °C; LC-MS; mean of 3 ± SD
Source text: (§2) Our primary interest was the conservation of substrate specificity. To define the specificities of the eight fungal pathogen Cdc14 homologs and compare them to the well-characterized ScCdc14, we developed a new assay that uses mass spectrometry (MS) to measure the specificity constant, kcat/KM, for a collection of synthetic phosphopeptide substrates (Fig. 3a). This assay, based on a similar assay for measuring protease specificity, is more sensitive and has a much broader linear dynamic range (Fig. 3b) than the conventional malachite green colorimetric assay used to generate the phosphopeptide data in Table 1. These advantages made it convenient for measuring Cdc14 activity towards substrates whose specificity constants can vary by several orders of magnitude. The assay also increases throughput by allowing simultaneous measurement of kcat/KM for many different substrates. The peptides were based on the Yen1 Ser583 sequence with variations designed to test the importance of the four known ScCdc14 substrate recognition features (phosphoamino acid identity, + 1 Pro, + 3 Lys/Arg, Lys/Arg near + 3). Measurements were made by integrating MS chromatogram peak areas for the phosphorylated and dephosphorylated peptide species after Cdc14 treatment and using those values to calculate the fraction of substrate consumed (Fig. 3c; see “Methods” for details). […] Results from this assay were in reasonably good agreement with conventional steady-state kinetic measurements of kcat and KM using a malachite green spectroscopic assay (compare substrate pS in Tables 1 and 2), although the MS assay consistently yielded kcat/KM ~ three to fivefold higher, likely due to sensitivity limitations of the malachite green assay with high affinity substrates.
(§3) kcat/KM measurements can be made on pooled substrate mixtures for characterizing enzymatic specificity, provided substrate concentrations are far below KM[38]. Mass spectrometry is a useful tool for monitoring reaction progress in such mixtures, as long as each substrate and product has a unique mass. […]

[13] = molecular target: T5, CgCdc14; experiment: MS specificity constant assay; format: biochemical; conditions: pooled phosphopeptides 375 nM each, 1 to 1,000 nM Cdc14, pH 7.5, 30 °C; LC-MS; mean of 3 ± SD
Source text: as §2, §3

[14] = molecular target: T2, ScCdc14; experiment: MS specificity constant assay; format: biochemical; conditions: pooled phosphopeptides 375 nM each, 1 to 1,000 nM Cdc14, pH 7.5, 30 °C; LC-MS; mean of 3 ± SD
Source text: as §2, §3

[15] = molecular target: T3, AnCdc14; experiment: MS specificity constant assay; format: biochemical; conditions: pooled phosphopeptides 375 nM each, 1 to 1,000 nM Cdc14, pH 7.5, 30 °C; LC-MS; mean of 3 ± SD
[16] = tested on: CzCdc14; experiment: MS specificity constant assay; format: biochemical, Cercospora zeina; conditions: pooled phosphopeptides 375 nM each, 1 to 1,000 nM Cdc14, pH 7.5, 30 °C; LC-MS; mean of 3 ± SD
Source text: (§4) Our primary interest was the conservation of substrate specificity. To define the specificities of the eight fungal pathogen Cdc14 homologs and compare them to the well-characterized ScCdc14, we developed a new assay that uses mass spectrometry (MS) to measure the specificity constant, kcat/KM, for a collection of synthetic phosphopeptide substrates (Fig. 3a). This assay, based on a similar assay for measuring protease specificity, is more sensitive and has a much broader linear dynamic range (Fig. 3b) than the conventional malachite green colorimetric assay used to generate the phosphopeptide data in Table 1. These advantages made it convenient for measuring Cdc14 activity towards substrates whose specificity constants can vary by several orders of magnitude. The assay also increases throughput by allowing simultaneous measurement of kcat/KM for many different substrates. The peptides were based on the Yen1 Ser583 sequence with variations designed to test the importance of the four known ScCdc14 substrate recognition features (phosphoamino acid identity, + 1 Pro, + 3 Lys/Arg, Lys/Arg near + 3). Measurements were made by integrating MS chromatogram peak areas for the phosphorylated and dephosphorylated peptide species after Cdc14 treatment and using those values to calculate the fraction of substrate consumed (Fig. 3c; see “Methods” for details). […]

[17] = molecular target: T1, MoCdc14; format: biochemical, Magnaporthe oryzae; conditions: pooled phosphopeptides 375 nM each, 1 to 1,000 nM Cdc14, pH 7.5, 30 °C; LC-MS; mean of 3 ± SD
[18] = molecular target: T6, RsCdc14; experiment: MS specificity constant assay; format: biochemical; conditions: pooled phosphopeptides 375 nM each, 1 to 1,000 nM Cdc14, pH 7.5, 30 °C; LC-MS; mean of 3 ± SD
[19] = tested on: UmCdc14; experiment: MS specificity constant assay; format: biochemical, Ustilago maydis; conditions: pooled phosphopeptides 375 nM each, 1 to 1,000 nM Cdc14, pH 7.5, 30 °C; LC-MS; mean of 3 ± SD
Source text: as §4

[20] = tested on: all Cdc14 homologs; experiment: MS specificity constant assay, all homologs compared; format: biochemical
Source text: as §4

[21] = tested on: CzCdc14; format: biochemical, Cercospora zeina; conditions: pNPP; 25 mM HEPES pH 7.5, 30 °C; mean of 3 ± SD
Method: Activities towards varying concentrations of para-nitrophenyl phosphate (pNPP) were measured in 100 µL assay buffer (25 mM HEPES pH 7.5, 2 mM TCEP, 1 mM EDTA, and 150 mM NaCl) at 30 °C. Enzyme concentrations were chosen to achieve absorbance values within the linear response range while satisfying the steady-state assumption where substrate consumption was < 1%. Reactions were initiated by enzyme addition and stopped with 1 N NaOH. Absorbance at 405 nm was measured on a Synergy H1 microplate reader (BioTek) and converted to product concentration using a para-nitrophenol standard curve. Initial rates were plotted as a function of substrate concentration and fit with the Michealis-Menten equation in GraphPad Prism (Version 8) to determine kcat and KM.

[22] = molecular target: T1, MoCdc14; conditions: pNPP; 25 mM HEPES pH 7.5, 30 °C; mean of 3 ± SD

Compound: Cc1cc(=O)oc2c(F)c(OP(=O)(O)O)c(F)cc12 [DiFMUP]
- Km [1]: 66 ± 11 µM
- kcat [1]: 31 ± 2 s⁻¹
- kcat/KM [1]: 477,000 ± 10,600 M^−1 s^−1
- kcat [2]: 3 ± 0.5 s⁻¹
- kcat/KM [2]: 68,000 ± 6,100 M^−1 s^−1

Compound: CC(C)[C@H](NC(=O)[C@@H](N)CCC(=O)O)C(=O)N[C@@H](CC(F)(F)P(=O)(O)O)C(=O)N1CCC[C@H]1C(=O)N[C@H](C(=O)N[C@@H](CCCCN)C(=O)N[C@@H](CCCNC(=N)N)C(N)=O)[C@@H](C)O [pCF2Ser peptide, Glu-Val-pCF2Ser-Pro-Thr-Lys-Arg-amide] (H-EV[X1]PTKR-NH2)
- Ki [3]: 3.2 ± 1 µM
- Ki [4]: 3.4 ± 1.2 µM

Compound: HT[pS]PIKSIG
- Km [5]: 194 ± 44 µM
- kcat [5]: 1.0 ± 0.1 s⁻¹
- kcat/KM [5]: 5,100 ± 800 M^−1 s^−1
- Km [6]: 62 ± 14 µM
- kcat [6]: 2.1 ± 0.1 s⁻¹
- kcat/KM [6]: 34,000 ± 8,000 M^−1 s^−1
- Km [7]: 63 ± 19 µM
- kcat [7]: 0.4 ± 0.02 s⁻¹
- kcat/KM [7]: 6,200 ± 1,700 M^−1 s^−1
- Km [8]: 297 ± 38 µM
- kcat/KM [8]: 3,400 ± 300 M^−1 s^−1
- Km [9]: 351 ± 21 µM
- kcat [9]: 2.2 ± 0.1 s⁻¹
- kcat/KM [9]: 6,200 ± 200 M^−1 s^−1
- Km [10]: 178 ± 52 µM
- kcat [10]: 0.52 ± 0.07 s⁻¹
- kcat/KM [10]: 3,000 ± 600 M^−1 s^−1
- kcat ([11]; 640 nm): 1.4 ± 0.1 s⁻¹
- Km [11]: 173 ± 21 µM
- kcat/KM [11]: 7,800 ± 300 M^−1 s^−1
- specificity constant kcat/KM [12]: 15,700 ± 1,200 M^−1 s^−1
- specificity constant kcat/KM [13]: 19,400 ± 1,800 M^−1 s^−1
- specificity constant kcat/KM [14]: 21,100 ± 1,400 M^−1 s^−1
- specificity constant kcat/KM [15]: 25,200 ± 2,200 M^−1 s^−1
- specificity constant kcat/KM [16]: 110,800 ± 10,600 M^−1 s^−1
- specificity constant kcat/KM [17]: 17,000 ± 2,500 M^−1 s^−1
- specificity constant kcat/KM [18]: 17,300 ± 1,500 M^−1 s^−1
- specificity constant kcat/KM [19]: 12,900 ± 3,300 M^−1 s^−1
- kcat/KM of pSer-containing peptide higher than pThr-containing peptide [20]: > 1,000 fold
- kcat/KM of pSer-containing peptide higher than pTyr-containing peptide [20]: > 100 fold

Compound: O=[N+]([O-])c1ccc(OP(=O)(O)O)cc1 [pNPP, para-nitrophenyl phosphate]
- Km [21]: 25000 ± 2000 µM
- kcat [21]: 2.8 ± 0.1 s⁻¹
- kcat/KM [21]: 115 ± 6 M⁻¹ s⁻¹
- kcat [22]: 1.02 ± 0.03 s⁻¹
- kcat/KM [22]: 40 ± 2 M⁻¹ s⁻¹

Reference: PMC7374715, “Conservation of Cdc14 phosphatase specificity in plant fungal pathogens: implications for antifungal development” (Scientific Reports, 2020)
